Measured values taken from patent US20250213547A1, “METHODS OF TREATING NEUROLOGICAL DISEASES” (priority 2022, published 2025).

Columns and labels:
clinical = format: in vivo; settings: human; for Cmax: mean
Description: The first-in-human clinical trial administered a single-rising dose and included 48 healthy men and women aged 19-55 with a body mass index between 18 kg/m2 and 30 kg/m2. […] Examples 2-5 herein further describes the trial protocol and the results, including data on the bioavailability of solution versus tablet (example 3), fed versus fasting patients (example 4), and PD data (example 5). The data obtained from this trial informed on the safe dosage range for future trials, and was included in the first-step of the modeling analysis described in example 12.
The study enrolled 48 subjects in the single rising dose study. Subjects were sorted into six cohorts and randomly assigned to treatment or placebo groups.
A prior study of soticlestat dosing in dogs guided the safety margin of minimal and maximal single dose selection for human subjects. An initial dosage of 10 mg provided a 44-fold safety margin relative to the maximum safe dosage in dogs. […] Each dose trial contained two placebo subjects. Ascending doses were tested in 2 sentinel subjects at a time to determine safety and tolerability before including the full cohort.
The analytes and internal standards were extracted by solid phase extraction or by dilution. […] Multiple analyses of pooled samples (n=6) verified intra- and inter-assay accuracy with an acceptance criteria of within 15% (CV≤15%) or 20% (CV≤20%) for the LLOQ. PK parameters were analyzed from plasma and urine concentration time data using standard non-compartmental analysis methods with Phoenix WinNonlin™ version 6.3 (Certara, Princeton, N.J. USA). All statistical analyses were performed using SAS software version 9.2 (SAS Institute Inc., Cary, N.C. USA).

plasma 24HC = assay: Healthy Japanese subjects, Part 2: plasma 24HC pharmacodynamics; format: in vivo, human
Experimental: TAK-935 or placebo was administered to the 9 subjects at the dose of 100 mg BID from Day 1 to Day 7, then 200 mg BID from Day 8 to Day 14, and finally 300 mg BID from Day 15 to Day 21, and safety, PK and PD were investigated. The planned dose levels of TAK-935 to be evaluated are outlined in Table 40a.
Blood samples for PD analysis of plasma 24HC level were collected into blood collection tubes (vacutainer) containing the anticoagulant K2EDTA.
The PD assessments described below were performed at the time points stipulated in the schedule of procedures. The additional PD endpoints included the following PD parameters for plasma 24HC: […]

[1] = both sexes, in vivo, po, 200 mg
[2] = both sexes, in vivo, po, 600 mg
[3] = both sexes, in vivo, po, 900 mg
[4] = both sexes, in vivo, po, 1350 mg
[5] = Day 21 after 100 mg BID, 200 mg BID, and 300 mg BID, mean
[6] = multiple doses 100 mg BID, 200 mg BID, and 300 mg BID (Day 21), mean

In the case of `O=C(c1cccnc1-c1ccncc1)N1CCC(O)(Cc2ccccc2)CC1` [soticlestat], the CL renal (clinical; both sexes, in vivo) is reported as 3.83 to 10.3 mL/min, the Tmax (clinical; both sexes, in vivo, po) is reported as 15 to 31.2 min and the half-life (clinical; both sexes, in vivo, po) is reported as 49.2 to 430 min. For the same molecule, the Tmax (clinical; both sexes, in vivo, po, 15 mg) was 15 min, the Cmax (clinical; both sexes, in vivo, po, 15 mg) was 43.5 ng/mL and the AUC(0-inf) (clinical; both sexes, in vivo, po, 50 mg) was 172 ng·h/mL. The AUC(0-t) (clinical; both sexes, in vivo, po, 50 mg) was 169 ng·h/mL, the Tmax (clinical; both sexes, in vivo, po, 50 mg) was 15 min and the Vd/F (clinical; both sexes, in vivo, po, 50 mg) was 1500 L. The Cmax (clinical; both sexes, in vivo, po, 50 mg) was 210 ng/mL, the AUC(0-inf) (clinical; [1]) was 621 ng·h/mL and the AUC(0-t) (clinical; [1]) was 563 ng·h/mL. It also gave a Tmax (clinical; [1]) of 15 min, a Vd/F (clinical; [1]) of 2240 L and a Cmax (clinical; [1]) of 571 ng/mL. The Tmax (clinical; [2]) was 31.2 min, the Vd/F (clinical; [2]) was 993 L and the Cmax (clinical; [2]) was 4550 ng/mL. The AUC(0-inf) (clinical; [3]) was 7660 ng·h/mL, the AUC(0-t) (clinical; [3]) was 7620 ng·h/mL and the Vd/F (clinical; [3]) was 1230 L. For the same molecule, the Cmax (clinical; [3]) was 5080 ng/mL, the AUC(0-inf) (clinical; [4]) was 13500 ng·h/mL and the AUC(0-t) (clinical; [4]) was 13500 ng·h/mL. It also gave a Vd/F (clinical; [4]) of 852 L, a Cmax (clinical; [4]) of 7950 ng/mL and a Vd/F (clinical; both sexes, plasma, single oral solution dose 15 mg, read-out: Vz/F, mean) of 732 L. For the same molecule, the “time of second smaller plasma peak post-dose” value (clinical; both, in vivo) was “approximately 10 hours”, the “t1/2z, mean” value (clinical; both, in vivo, po, 15 mg) was 49.2 min and the “t1/2z, mean” value (clinical; both, in vivo, po, 50 mg) was 179 min. The “t1/2z, mean” value (clinical; both, in vivo, po, 200 mg) was 263 min, the “AUC(0-t), mean” value (clinical; both, in vivo, po, 600 mg) was 5790 ng·h/mL and the “AUC∞, mean” value (clinical; both, in vivo, po, 600 mg) was 5810 ng·h/mL. For the same molecule, the “t1/2z, mean” value (clinical; both, in vivo, po, 600 mg) was 286 min, the “Tmax, median” value (clinical; both, in vivo, po, 900 mg) was 30 min and the “t1/2z, mean” value (clinical; both, in vivo, po, 900 mg) was 430 min. For the same molecule, the “Cmax, mean” value (clinical; both, in vivo, po, 1350 mg) was 7953 ng/mL, the “t1/2z, mean” value (clinical; both, in vivo, po, 1350 mg) was 319 min and the “dose-proportionality slope, AUC(0-t) (log-log)” value (clinical; in vivo) was 1.38 (1.28, 1.48). For the same molecule, the “dose-proportionality slope, AUC∞ (log-log)” value (clinical; in vivo) was 1.42 (1.31, 1.53), the “dose-proportionality slope, Cmax (log-log)” value (clinical; in vivo) was 1.22 (1.11, 1.32) and the “CL/F, mean” value (clinical; in vivo, po, 15 mg) was 689 L/h. The “CL/F, mean” value (clinical; in vivo, po, 50 mg) was 549 L/h, the “CL/F, mean” value (clinical; in vivo, po, 200 mg) was 355 L/h and the “CL/F, mean” value (clinical; in vivo, po, 600 mg) was 145 L/h. The “CL/F, mean” value (clinical; in vivo, po, 900 mg) was 124 L/h, the “CL/F, mean” value (clinical; in vivo, po, 1350 mg) was 112 L/h and the “maximum mean decrease of trough plasma 24HC from time-matched baseline” value (plasma 24HC; Day 21, up-titration to 300 mg BID) was “about 88%”. The “AUEC24 of plasma 24HC” value (plasma 24HC; [5]) was 124.2 ng·h/mL, the “AVECτ of plasma 24HC (AUEC during a dosing interval)” value (plasma 24HC; [5]) was 61.28 ng·h/mL and the “E12 of plasma 24HC (observed effect at 12 hours)” value (plasma 24HC; [5]) was 5.443 ng/mL. For the same molecule, the “E24 of plasma 24HC (observed effect at 24 hours)” value (plasma 24HC; [5]) was 5.013 ng/mL, the “Emax of plasma 24HC” value (plasma 24HC; [5]) was 4.640 ng/mL and the “Time to Emax of plasma 24HC” value (plasma 24HC; Day 21 after 100 mg BID, 200 mg BID, and 300 mg BID, median) was 6.000 h. For the same molecule, the Emax (plasma 24HC; Homo sapiens, 504 h, multiple doses 100 mg BID, 200 mg BID, and 300 mg BID (Day 21), mean, read-out: % change from Baseline in Emax of plasma 24HC) was -86.7%, the “% change from Baseline in AUEC24 of plasma 24HC” value (plasma 24HC; [6]) was −86.75% and the “% change from Baseline in AUECτ of plasma 24HC” value (plasma 24HC; [6]) was −86.62%. The “% change from Baseline in E12 of plasma 24HC” value (plasma 24HC; [6]) was −85.83% and the “% change from Baseline in E24 of plasma 24HC” value (plasma 24HC; [6]) was −87.67%.
